Assay results as given in patent US20060094880A9, “Synthetic process for trans-aminocyclohexyl ether compounds” (priority 2003, published 2006).

Tested on: sustained AF maintained during continuous vagal nerve stimulation
Assay: Canine vagal-AF model: termination of sustained AF during continuous vagal nerve stimulation
Assay type: in vivo, Mongrel dogs
Experimental: St.-Georges et al., 1997). Dogs are ventilated mechanically with room air supplemented with oxygen via an endotracheal tube at 20 to 25 breaths/minute with a tidal volume obtained from a nomogram. […] Catheters are inserted into the femoral artery for blood pressure recording and blood gas measurement, and into both femoral veins for drug administration and venous sampling. […] Body temperature is maintained at 37-40° C. with a heating blanket. The heart is exposed via a medial thoracotomy and a pericardial cradle is created. […] Drug effects to terminate sustained AF maintained during continuous vagal nerve stimulation are assessed. […] The vagal stimulation voltage is adjusted under control conditions, and then readjusted after each treatment to maintain the same bradycardic effect. […] Diastolic threshold and ERP are determined in duplicate and averaged to give a single value. […] The interval from the stimulus artefact and the peak of the local electrogram is measured as an index of conduction velocity. […] The stimulus voltage-heart rate relationship for vagal nerve stimulation is determined under control conditions in most experiments. […] After the termination of AF, the diastolic threshold and ERP of the atrium and ventricle are determined. […] Group data are expressed as the mean ±SEM. […]

`O=C(NCC1CCCCN1)c1cc(OCC(F)(F)F)ccc1OCC(F)(F)F` (stereo not shown) [Flecainide] was tested, and the “Effectiveness as a control in the present study” value was “comparable to that previously reported”.
